Assays:
[1] = target: CDK4/Cyclin D3 (Homo sapiens, UniProt P11802)
Description: Inhibition of human full length GST-tagged CDK4 (1 to 303(end) amino acids)/Cyclin D3 (1 to 292(end) amino acids) expressed in baculovirus expression system assessed as inhibition constant using Ulight-4E-BP1 as substrate preincubated for 30 mins followed by substrate addition and incubated for 90 mins by TR-FRET assay

[2] = target: CDK1/Cyclin A (Homo sapiens, UniProt P06493)
Description: Inhibition of human recombinant full length GST-tagged CDK1/Cyclin A2 expressed in sf9 insect cells assessed as inhibition constant using Ulight-4E-BP1 as substrate preincubated for 30 mins followed by substrate addition and incubated for 90 mins by TR-FRET assay

[3] = target: CDK6/cyclin D3 (Homo sapiens, UniProt Q00534)
Description: Inhibition of human full length GST-tagged CDK6 (1 to 326(end) amino acids)/Cyclin D3 (1 to 292(end) amino acids) expressed in baculovirus expression system assessed as inhibition constant using Ulight-4E-BP1 as substrate preincubated for 30 mins followed by substrate addition and incubated for 90 mins by TR-FRET assay

[4] = Lipophilicity, log D of the compound by microscale shake flask method; assay type: physicochemical; conditions: octanol/water
[5] = tested on: mouse Bcrp1; assay: in vitro; conditions: dog
Description: Efflux ratio in MDCK2 expressing mouse bcrp1

[6] = tested on: human MDR1; assay: in vitro; conditions: dog, MDCK-MDR1
Description: Efflux ratio in gMDCKI cells expressing human MDR1

[7] = target: Cyclin-dependent kinase 2/cyclin E1 (Homo sapiens, UniProt P24941); assay: Inhibition of human full length GST-tagged CDK2 (1 to 298(end) amino acids)/Cyclin E1 (1 to 410(end) amino acids) expressed in baculovirus expression system assessed as inhibition constant using Ulight-4E-BP1 as substrate preincubated for 30 mins followed by substrate addition and incubated for 90 mins by TR-FRET assay

Chain of CDK4/Cyclin D3 (P11802 whole entry): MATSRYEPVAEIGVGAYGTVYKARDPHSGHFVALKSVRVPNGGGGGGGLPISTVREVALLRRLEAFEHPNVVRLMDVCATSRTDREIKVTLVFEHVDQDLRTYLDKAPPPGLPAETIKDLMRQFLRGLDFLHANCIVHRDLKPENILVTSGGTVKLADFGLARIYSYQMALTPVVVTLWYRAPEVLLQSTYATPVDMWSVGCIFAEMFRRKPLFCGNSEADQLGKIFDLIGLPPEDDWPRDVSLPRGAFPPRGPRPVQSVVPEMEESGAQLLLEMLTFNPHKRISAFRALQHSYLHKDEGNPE
Chain of CDK4/Cyclin D3 (P30281 whole entry, further chain): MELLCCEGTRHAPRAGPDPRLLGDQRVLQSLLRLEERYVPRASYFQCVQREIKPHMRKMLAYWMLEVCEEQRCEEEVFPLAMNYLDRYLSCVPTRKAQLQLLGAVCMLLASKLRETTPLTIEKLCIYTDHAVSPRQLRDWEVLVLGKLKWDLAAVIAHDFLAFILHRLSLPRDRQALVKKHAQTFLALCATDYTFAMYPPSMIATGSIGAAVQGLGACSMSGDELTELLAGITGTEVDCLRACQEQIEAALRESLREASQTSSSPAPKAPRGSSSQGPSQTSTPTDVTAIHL
Chain of CDK6/cyclin D3 (P30281 whole entry): as the sequence (P30281 whole entry, further chain) above
Chain of CDK6/cyclin D3 (Q00534 whole entry): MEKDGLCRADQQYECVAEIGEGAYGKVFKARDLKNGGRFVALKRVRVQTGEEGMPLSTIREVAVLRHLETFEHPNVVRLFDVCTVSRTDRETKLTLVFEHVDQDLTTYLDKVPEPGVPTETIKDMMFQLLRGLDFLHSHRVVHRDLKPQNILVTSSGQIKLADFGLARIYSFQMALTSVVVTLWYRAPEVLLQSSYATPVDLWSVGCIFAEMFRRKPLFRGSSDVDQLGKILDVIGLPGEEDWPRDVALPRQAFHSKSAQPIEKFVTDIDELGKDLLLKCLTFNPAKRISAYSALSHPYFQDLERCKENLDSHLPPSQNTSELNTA
Chain of CDK1/Cyclin A (P06493 whole entry): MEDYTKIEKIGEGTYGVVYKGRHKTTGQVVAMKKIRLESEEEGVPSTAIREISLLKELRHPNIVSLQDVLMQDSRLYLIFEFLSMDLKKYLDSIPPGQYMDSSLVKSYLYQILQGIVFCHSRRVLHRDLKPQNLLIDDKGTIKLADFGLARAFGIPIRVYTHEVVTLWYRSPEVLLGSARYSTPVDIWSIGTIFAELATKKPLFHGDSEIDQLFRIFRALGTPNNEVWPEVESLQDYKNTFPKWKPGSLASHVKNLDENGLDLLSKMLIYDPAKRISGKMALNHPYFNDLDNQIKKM
Chain of CDK1/Cyclin A (P20248 whole entry, further chain): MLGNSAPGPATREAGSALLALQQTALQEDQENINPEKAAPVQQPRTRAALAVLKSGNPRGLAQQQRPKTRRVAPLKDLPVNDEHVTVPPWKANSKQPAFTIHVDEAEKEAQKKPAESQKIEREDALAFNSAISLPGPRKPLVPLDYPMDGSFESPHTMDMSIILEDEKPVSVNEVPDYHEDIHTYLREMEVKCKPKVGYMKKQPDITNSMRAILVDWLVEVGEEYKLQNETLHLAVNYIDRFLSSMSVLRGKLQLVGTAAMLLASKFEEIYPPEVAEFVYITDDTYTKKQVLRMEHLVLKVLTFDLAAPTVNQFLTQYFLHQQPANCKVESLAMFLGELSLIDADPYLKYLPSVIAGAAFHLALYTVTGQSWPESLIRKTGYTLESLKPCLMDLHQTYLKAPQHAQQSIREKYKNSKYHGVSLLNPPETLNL

| SMILES | Ki [1] [nM] | Ki [2] [nM] | Ki [3] [nM] | logD [4] | efflux ratio [5] | efflux ratio [6] | Ki [7] [nM] |
| --- | --- | --- | --- | --- | --- | --- | --- |
| CC(C)c1c(-c2nc(Nc3ccc(N4CCN(C)CC4)cn3)ncc2F)cnn1C | 2.7 | 530 | 32 | – | – | – | – |
| C[C@@H]1CCCCn2ncc(-c3nc(Nc4ccc(N5CC6(CN(C)C6)C5)cn4)ncc3F)c21 | < 0.3 | 63 | 1.7 | – | – | – | – |
| C[C@@H]1CCCCn2ncc(-c3nc(Nc4ccc(C5CCN(C)CC5)cn4)ncc3F)c21 | 0.8 | 280 | 18 | – | – | – | – |
| C[C@@H]1CCCCn2ncc(-c3nc(Nc4ccc(N5CC6(CN(CCF)C6)C5)cn4)ncc3F)c21 | < 0.3 | 52 | 1.6 | 2.8 | 0.9 | 2 | – |
| C[C@@H]1CCCCn2ncc(-c3nc(Nc4ccc(N5CCC(N(C)C)CC5)cn4)ncc3F)c21 | 1 | 210 | 10 | – | – | – | – |
| C[C@@H]1CCCCn2ncc(-c3nc(Nc4ccc(N5CC6(C5)CN(C5COC5)C6)cn4)ncc3F)c21 | 0.4 | 77 | 4.3 | – | – | – | – |
| COCCN1CCC(Nc2nccc(-c3cn[nH]c3C(C)C)n2)CC1 | 20 | 270 | 720 | – | – | – | 320 |
| COCCN1CCC(Nc2nccc(-c3cnn4c3CCCC4)n2)CC1 | 210 | 5200 | 7400 | – | – | – | 7500 |
| CN1CCN(c2ccc(Nc3ncc(F)c(-c4cnn5c4CCCC5)n3)nc2)CC1 | 3.6 | 2000 | 40 | – | – | – | – |
| C[C@@H]1CCCCn2ncc(-c3nc(Nc4ccc(N5CCOCC5)cn4)ncc3F)c21 | 0.4 | 70 | 7.9 | – | – | – | – |
| CC(C)c1n[nH]cc1-c1ccnc(NC2CCCCC2)n1 | 18 | 24 | 450 | – | – | – | 22 |
| CCN1CCN(Cc2ccc(Nc3ncc(F)c(-c4cnn5c4[C@H](C)CCCC5)n3)nc2)CC1 | 1.3 | 630 | 37 | – | – | – | – |
| C[C@@H]1CCCCn2ncc(-c3nc(Nc4ccc(N5CC6(CN(CCCF)C6)C5)cn4)ncc3F)c21 | < 0.3 | 110 | 3.3 | – | – | – | – |
| C[C@@H]1CCCn2ncc(-c3nc(Nc4ccc(N5CCN(C)CC5)cn4)ncc3F)c21 | 1.4 | 770 | 19 | – | – | – | – |
| C[C@H]1CCCn2ncc(-c3nc(Nc4ccc(N5CCN(C)CC5)cn4)ncc3F)c21 | 3.8 | 980 | 38 | – | – | – | – |
| CN1CCN(c2ccc(Nc3ncc(F)c(-c4cnn5c4CCCCC5)n3)nc2)CC1 | 1.8 | 1300 | 24 | – | – | – | – |
| CN1CCN(c2ccc(Nc3nccc(-c4cnn5c4CCCC5)n3)nc2)CC1 | 61 | 29000 | 1900 | – | – | – | 15000 |

From ChEMBL document CHEMBL4385643, “Design of a brain-penetrant CDK4/6 inhibitor for glioblastoma” (Bioorg Med Chem Lett, 2019)
